# Reference: patent US8815935B2, “Inhibitors of protein prenyltransferases” (The Regents of the University of California, priority 2008, dated 2014)
# Like-named read-outs stand apart in the source and are kept apart here.
# Assays:
# GGTase-I = biological target: T1, GGTase-I (Rattus norvegicus, UniProt P53610+Q04631); test: In vitro GGTase-I enzyme assay (IC50, kinetics); type: biochemical
# T1 construct: purchased JENA BIOSCIENCE
# Protocol: The GGTase-I assay was carried out using RhoA as a substrate protein, GGTase-I (JENA Bioscience) and [3H]geranylgeranyl pyrophosphate. Incubation was for 30 min at 37° C. GGTase-II (or RabGGTase) assay was carried out using YPTI as a substrate protein, GGTase-II (Calbiochem, San Diego, Calif.) plus REP1 (Calbiochem) and [3H]geranylgeranyl pyrophosphate. Incubation was for 30 min at 37° C. FIGS. 20D-20F show the three dimensional structure of GGTase I (D), FTsse (E) and GGTase II (F) which can be obtained from X-ray diffraction studies of protein crystals.
# GGTase-I and FTase activities were determined by following the incorporation of radiolabeled isoprenoid [^3H]-geranylgeranyl or [^3H]-farnesyl into substrate proteins. FTase or GGTase-I (50 nM) were used to initiate reactions containing 0.4 μM of [^3H]-FPP or 0.5 μM of [^3H]-GGPP and 2 μM of MBP-tagged substrates (K-Ras4B for FTase; RhoA for GGTase-I) in 20 μl of buffer {50 mM Tris-HCl (pH 7.5), 10 mM MgCl2, […] and 5 mM DTT}. Inhibitors were added at the indicated concentrations. The final DMSO concentration was 2.5% for all samples.
# Reactions were carried out for 10 min at 30° C. The reaction mixture was spotted onto a filter paper, treated with 10% trichloroacetic acid (TCA) followed by ethanol and acetone washing. The filter was counted using a scintillation counter. Kinetic assays in which the GGPP concentration was varied employed fixed concentrations of GGTase-I and RhoA, and reactions were carried out for 5 min. Similarly, fixed concentrations of GGTase-I and GGPP were used when the amount of RhoA was varied.
# Jurkat cells = test: Jurkat cell growth inhibition; type: cell-based, human
# Protocol: In Table 4 in cell GI50 values for the growth inhibition of Jurkat cells are reported. The GI50 value is the concentration of a test compound needed to produce 50% growth inhibition in the cell type listed. In Table 4 the isolated yield of each synthetic step for the synthesis of corresponding compounds are also reported.
# Panc-1 cells (Pancreatic cancer cell line) and Jurkat cells (T-cell leukemia) were treated with 12.5 μM of P5-H6 or 12.5 μM of mP5-H6a for 72 hours. The cell number was counted as described in Example 5.
# (§1) Cell viability was determined by Cell Counting Kit-8 (CCK-8, Dojindo, Kumamoto, Japan) as described previously (31). Cell viability was calculated relative to the DMSO control. Cell cycle profile was analyzed by flow cytometry as described previously (32).
# K562 cells = test: K562 cell growth inhibition; type: cell-based, human; conditions: Tables 8-15; no unit printed there
# Protocol: K562 cells are a cell line of human erythroleukemia cells. The K562 cells were treated with P3-E5, P5-H6 or GGTI-298 (a known GGTI compound illustrated in FIG. 27) for 72 hours and then cell number was counted using cell counting kit-8 (Dojindo, Gaithersburg, Md.). Cell viability relative to the DMSO control and the known GGTI compound is plotted in FIG. 23.
# as §1
# [1] = Tables 3, 5, 7, read-out: In vitro (enzyme assay) IC50, GGTase I
# [2] = Homo sapiens, Jurkat, Tables 4, 6, 7, read-out: Jurkat cell GI50
# [3] = Tables 8-15, no unit printed there (Table 7 head: μM unless otherwise specified), read-out: In vitro (GGTase I IC50)
# [4] = Homo sapiens, Jurkat, Tables 8-15, no unit printed there, read-out: Jurkat GI50
# [5] = Tables 4, 6, 7, read-out: Jurkat cell GI50
# [6] = Tables 8-15, no unit printed there, read-out: Jurkat GI50
# [7] = Tables 5, 14, read-out: In vitro (enzyme assay) IC50, GGTase I
Structure (SMILES),IC50 (GGTase-I; [1]) [µM],GI50 (Jurkat cells; [2]) [µM],IC50 (GGTase-I; [3]) [µM],also measured
Cc1ccccc1S(=O)(=O)N1[C@@H](c2ccc(Cl)cc2)C(C(=O)N[C@@H](CC(C)C)C(N)=O)=C[C@H]1C(C)(C)C [P61-B02],8.1,6.58,–,–
Cc1ccccc1S(=O)(=O)N1[C@@H](c2ccc(Cl)c(Cl)c2)C(C(=O)O)=C[C@H]1C(C)(C)C,–,–,0.363,–
CC(C)C[C@H](NC(=O)C1=CC[C@@H](c2cccc(Cl)c2)N(S(=O)(=O)c2ccc(Br)cc2)C1c1cccc(Br)c1)C(N)=O (stereo partly drawn) [P61-C10],–,–,–,GI50 (Jurkat cells; [5]): 2.22 µM; GI50 (Jurkat cells; [6]): 2.22 µM; GI50 (K562 cells): 4.37 µM
CONC(=O)C1=C[C@@H](C(C)(C)C)N(S(=O)(=O)c2ccccc2C)[C@H]1c1ccc(Cl)cc1,3.8,12.6,–,–
CC(C)(C)[C@@H]1C=C(C(=O)N[C@@H](Cc2ccccc2)C(N)=O)[C@H](c2ccc(Cl)c(Cl)c2)N1S(=O)(=O)c1ccccc1Br [P61-E03],> 20,–,–,–
COC(=O)[C@H](Cc1ccccc1)NC(=O)CCOCC1=C[C@@H](C(C)(C)C)N(S(=O)(=O)c2ccccc2C)[C@H]1c1ccc(Cl)cc1,–,–,> 20,GI50 (Jurkat cells; [4]): 5.1 µM
CC(C)(C)[C@@H]1C=C(C(=O)N[C@@H](Cc2ccccc2)C(N)=O)[C@H](c2ccc(Cl)c(Cl)c2)N1S(=O)(=O)c1ccccc1Br [drawing 167],–,–,> 20,–
CC(C)(C)[C@@H]1C=C(C(=O)O)[C@H](c2ccc(Br)cc2)N1S(=O)(=O)c1ccccc1Cl,–,–,0.349,–
CC(C)CC(NC(=O)C1=CCC(c2cccc(Br)c2)N(S(=O)(=O)c2ccc(Cl)cc2)C1c1cccc(Cl)c1)C(=O)O (stereo not drawn) [P61-G08],–,–,–,IC50 (GGTase-I; [7]): 0.06 µM
O=C(NC(Cc1ccccc1)C(=O)O)C1=CCC(c2cccc(Cl)c2)N(S(=O)(=O)c2ccc(Cl)cc2)C1c1cccc(Cl)c1 (stereo not drawn) [P61-H09],–,–,–,IC50 (GGTase-I; [7]): 0.021 µM
CC(C)(C)[C@@H]1C=C(C(=O)N[C@@H](Cc2ccccc2)C(N)=O)[C@H](c2ccc(Cl)c(Cl)c2)N1S(=O)(=O)c1c(Cl)cccc1Cl [P61-D10],–,–,–,GI50 (Jurkat cells; [5]): 5.28 µM; GI50 (Jurkat cells; [6]): 5.28 µM; GI50 (K562 cells): 3.67 µM
Cc1ccccc1S(=O)(=O)N1[C@@H](c2ccc(Cl)cc2)C(C(=O)O)=C[C@H]1C(C)(C)C [drawing 136],0.5,20,–,–
CC(C)CC(NC(=O)C1=CCC(c2cccc(Br)c2)N(S(=O)(=O)c2ccc(F)cc2)C1c1cccc(Cl)c1)C(=O)O (stereo not drawn) [P61-H06],–,–,–,"IC50 (GGTase-I; [7]): 0.21 µM; GI50 (Jurkat cells; Homo sapiens, Jurkat, Table 6, read-out: Jurkat cell GI50): 0.21 µM"
O=C(NC(Cc1ccccc1)C(=O)O)C1=CCC(c2cccc(Br)c2)N(S(=O)(=O)c2ccc(Cl)cc2)C1c1cccc(Cl)c1 (stereo not drawn) [P61-G07],–,–,–,IC50 (GGTase-I; [7]): 0.07 µM

# More lines, main results first:
IC50 (GGTase-I; [1]) [µM],GI50 (Jurkat cells; [2]) [µM],IC50 (GGTase-I; [3]) [µM],Structure (SMILES),also measured
–,–,> 50,COC(=O)[C@H](CC(C)C)NC(=O)C1=CC[C@@H](c2ccc(Cl)cc2)N(S(=O)(=O)c2ccccc2C)C1c1cccc(Cl)c1 (stereo partly drawn),GI50 (Jurkat cells; [4]): 6.1 µM
> 20,3.53,–,COC(=O)[C@H](CC(C)C)NC(=O)C1=CC[C@@H](c2ccc(Cl)cc2)N(S(=O)(=O)c2ccccc2C)[C@H]1c1cccc(Cl)c1 [P61-E07],–
> 20,–,–,COC(=O)C(CC(C)C)NC(=O)C1=CCC(c2cccc(Cl)c2)N(S(=O)(=O)c2ccc(Cl)cc2)C1c1cccc(Cl)c1 (stereo not drawn) [P67-A05],–
–,–,39.1,CC(C)C[C@H](NC(=O)C1=CC[C@@H](c2cccc(Br)c2)N(S(=O)(=O)c2ccc(Cl)cc2)[C@H]1c1cccc(Cl)c1)C(N)=O,–
39.1,3.15,–,CC(C)C[C@H](NC(=O)C1=CC[C@@H](c2cccc(Br)c2)N(S(=O)(=O)c2ccc(Cl)cc2)C1c1cccc(Cl)c1)C(N)=O (stereo partly drawn) [P61-C06],–
1.4,13,–,Cc1ccccc1S(=O)(=O)N1[C@@H](c2ccc(Cl)cc2)C(C(=O)N[C@@H](Cc2ccccc2)C(=O)O)=C[C@H]1C(C)(C)C [P61-A08],–
–,–,> 20,CC(C)C[C@H](NC(=O)C1=CC[C@@H](c2cccc(Cl)c2)N(S(=O)(=O)c2ccc(Br)cc2)[C@H]1c1cccc(Cl)c1)C(N)=O [drawing 209],–
> 20,3.81,–,COC(=O)C(CC(C)C)NC(=O)C1=CCC(c2cccc(Cl)c2)N(S(=O)(=O)c2ccc(Br)cc2)C1c1cccc(Cl)c1 (stereo not drawn) [P67-A09],–
